Reference: patent US20070059369A1, “Subcutaneous delivery system, process for the preparation of the same and use of the same for the treatment of cholinergic deficient disorders” (priority 2003, published 2007)

Key:
[1] = system: cerebral hypoxia-ischemia rat model; details: cited from earlier work
[2] = aged patients and patients suffering from Alzheimer's disease; cited from earlier work
[3] = target: butyrylcholinesterase (BuChE) (Homo sapiens, UniProt P06276); assay: Inhibition of butyrylcholinesterase; assay type: biochemical; details: in contrast to AChE
Sequence of butyrylcholinesterase (BuChE) (P06276 29-602): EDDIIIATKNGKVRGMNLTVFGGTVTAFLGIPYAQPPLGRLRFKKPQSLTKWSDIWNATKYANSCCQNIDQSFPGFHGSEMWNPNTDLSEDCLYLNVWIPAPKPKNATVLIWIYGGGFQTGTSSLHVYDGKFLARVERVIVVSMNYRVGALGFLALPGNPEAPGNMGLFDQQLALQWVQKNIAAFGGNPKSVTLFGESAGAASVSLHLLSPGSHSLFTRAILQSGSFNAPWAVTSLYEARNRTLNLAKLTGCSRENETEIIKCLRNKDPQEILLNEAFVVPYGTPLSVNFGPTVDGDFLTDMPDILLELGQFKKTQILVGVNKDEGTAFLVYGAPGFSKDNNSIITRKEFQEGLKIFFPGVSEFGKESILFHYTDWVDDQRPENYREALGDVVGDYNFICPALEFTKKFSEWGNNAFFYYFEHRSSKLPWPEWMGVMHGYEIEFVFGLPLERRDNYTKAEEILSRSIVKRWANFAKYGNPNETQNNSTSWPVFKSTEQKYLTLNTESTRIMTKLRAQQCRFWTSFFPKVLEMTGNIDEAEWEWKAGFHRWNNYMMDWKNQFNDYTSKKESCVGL

[4] = system: acetylcholinesterase (AChE); assay: Inhibition of acetylcholinesterase; assay type: biochemical; details: different species (rat, bovine and human)
[5] = target: acetylcholinesterase (Homo sapiens, UniProt P22303); details: from EP 0 806 416; cited from earlier work
Sequence of acetylcholinesterase (P22303 32-614): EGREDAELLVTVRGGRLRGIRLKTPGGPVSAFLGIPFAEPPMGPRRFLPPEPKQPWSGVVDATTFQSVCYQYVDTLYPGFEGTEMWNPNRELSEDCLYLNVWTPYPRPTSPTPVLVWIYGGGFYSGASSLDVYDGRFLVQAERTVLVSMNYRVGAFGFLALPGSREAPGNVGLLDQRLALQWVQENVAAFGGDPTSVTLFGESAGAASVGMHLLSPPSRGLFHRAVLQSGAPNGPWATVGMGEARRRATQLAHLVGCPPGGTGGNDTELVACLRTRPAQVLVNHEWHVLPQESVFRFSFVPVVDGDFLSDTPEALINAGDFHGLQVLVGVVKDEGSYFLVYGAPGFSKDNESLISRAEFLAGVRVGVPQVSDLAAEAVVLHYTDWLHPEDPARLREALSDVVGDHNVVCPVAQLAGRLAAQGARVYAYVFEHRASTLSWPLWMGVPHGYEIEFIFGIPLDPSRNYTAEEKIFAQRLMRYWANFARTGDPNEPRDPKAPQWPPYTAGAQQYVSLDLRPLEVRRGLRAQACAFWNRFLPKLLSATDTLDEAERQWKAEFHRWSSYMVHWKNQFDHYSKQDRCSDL

Compound	Neuroprotective effect of rescue treatment [1]	Memory-enhancing effects [2]	Inhibitory activity on butyrylcholinesterase (BuChE) [3]	Inhibition of acetylcholinesterase (AChE) [4]	Selectivity for acetylcholinesterase compared to butyrylcholinesterase [5]
C/C=C1\[C@H]2C=C(C)C[C@]1(N)c1ccc(=O)[nH]c1C2 [Huperzine A]	beneficial neuroprotective effect	memory-enhancing effects			
C/C=C1\C2C=C(C)CC1(/N=C/c1cc(Cl)cc(OC)c1O)c1ccc(=O)[nH]c1C2 (centres unmarked) [derivative of formula (III)]			much weaker inhibitory activity	potent and selective inhibitor	highly selective activity in favour of acetylcholinesterase
